# Source: US12600728B2, “Interleukin-17 inhibitors” (priority 2020, dated 2026)
# Read-outs that look alike come from different tables or passages of the source.
# Key:
# [1] = target: recombinant human IL-17AA (Homo sapiens, UniProt Q16552); experiment: IL-6 release from NHDF cells, IL-17AA plus TNF-α stimulation; assay type: cell-based; settings: 24 hours, IL-6 by ELISA
# Procedure: IL-6 Release from NHDF Cells (Normal Human Dermal Fibroblasts)
# NHDF cells isolated from normal adult mesoderm, connective tissues were cultured in fibroblast growth medium containing 2% supplement. […] The cells were allowed to adhere overnight before they were incubated with the compound/cytokine cocktail.
# Diluted compounds were pre-incubated with recombinant human IL-17AA or IL-17AF plus human TNF-α for 30 minutes at room temperature on a shaker. […] The cells were incubated with the compound/cytokines cocktail for 24 hours at 37° C. (5% CO2). […] The final DMSO or plasma concentrations were 0.1% or 20%, respectively. All compound incubations were done in duplicate. The supernatants were collected to quantify IL-6 by ELISA according to the manufacturers instructions. The optical density was measured at 450 nm by an EnVision Multilabel Plate Reader (Perkin Elmer). The IL-6 levels produced after TNF-α stimulation were subtracted from the IL-6 produced after IL-17/TNF-α co-stimulation. These IL-17-specific IL-6 concentrations were used for […] value calculation.
# [2] = target: biotinylated human IL-17A / AF647-labeled human IL-17RA (Homo sapiens, UniProt Q16552); experiment: Human IL-17A×IL-17RA TR-FRET assay; assay type: binding
# Sequence of biotinylated human IL-17A / AF647-labeled human IL-17RA (Q16552 24-155): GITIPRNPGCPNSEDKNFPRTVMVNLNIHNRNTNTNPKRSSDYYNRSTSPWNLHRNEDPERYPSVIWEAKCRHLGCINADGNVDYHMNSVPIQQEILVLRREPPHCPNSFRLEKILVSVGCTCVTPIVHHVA
# Procedure: Human IL-17A×IL-17RA TR-FRET Assay
# Each compound concentration is tested in duplicate.
# The final total assay volume is 10 μL.
# Each plate contains test compounds in columns 1-22 and controls in columns 23 and 24. The neutral control (NC) contains all the assay components, but DMSO instead of test compound. […] The fluorescence values for emission at 615 nm and 665 nm are loaded to the evaluation software Helios.
# From the activity data at each compound concentration, the IC50 values are obtained using the 4-parameter logistic function (“Hill-slope model”) of Helios.
# [3] = IL17AA + TNF IC50 IL-6, NHDF cells, IL-17AA 30 pM plus TNF-α 6 pM
# [4] = IL17AA FRET/ IL17Rawt IC50, TR-FRET, biotinylated human IL-17A 5 nM, AF647-labeled human IL-17RA 30 nM
# [5] = NHDF cells, IL-17AA 30 pM + TNF-α 6 pM, read-out: IL17AA + TNF IC50 IL-6
# [6] = TR-FRET, 5 nM IL-17A, 30 nM IL-17RA, read-out: IL17AA FRET/ IL17Rawt IC50
# [7] = NHDF cells, IL-17AA 30 pM plus TNF-α 6 pM, read-out: IL17AA + TNF IC50 IL-6
# [8] = TR-FRET, biotinylated human IL-17A 5 nM, AF647-labeled human IL-17RA 30 nM, read-out: IL17AA FRET/ IL17Rawt IC50
# Sequence of recombinant human IL-17AA (Q16552 24-155): as above
"IC50 [1, 7]","IC50 [2, 8]",Compound,other results
–,–,"CCn1nccc1C(=O)NC(C(=O)Nc1ccc(-c2c(C(F)(F)F)cc[n+]([O-])c2C)cc1)C1CC2CC2C1 (single isomer, unassigned) [Example 64]","IC50 [1, 3]: 25 nM; IC50 [2, 4]: 74 nM"
–,–,"CCn1nccc1C(=O)NC(C(=O)Nc1ccc(-c2c(Cl)cc[n+]([O-])c2C)cc1)C1CC2CC2C1 (single isomer, unassigned) [Example 145]","IC50 [1, 5]: 23.5 nM; IC50 [2, 6]: 24 nM"
–,–,"Cc1nocc1C(=O)NC(C(=O)Nc1ccc(-c2c(Cl)cc[n+]([O-])c2C)cc1)C1CC2CC2C1 (single isomer, unassigned) [Example 181]","IC50 [1, 5]: 64 nM; IC50 [2, 6]: 54.8 nM"
–,–,"Cc1cc[n+]([O-])c(C)c1-c1ccc(NC(=O)C(NC(=O)c2ccc3n2CCN(C)C3)C2CC3CC3C2)cc1 (single isomer, unassigned) [Example 192]","IC50 [1, 5]: 142 nM; IC50 [2, 6]: 151 nM"
–,–,"Cc1nocc1C(=O)NC(C(=O)Nc1ccc(-c2c(Cl)cc[n+]([O-])c2C)cc1)C1CC2CC2C1 (single isomer, unassigned) [Example 198]","IC50 [1, 5]: 94 nM; IC50 [2, 6]: 222 nM"
–,–,"CCn1nccc1C(=O)NC(C(=O)Nc1ccc(-c2c(Cl)cc[n+]([O-])c2C)cc1)C1CC2CC2C1 (single isomer, unassigned) [Example 209]","IC50 [1, 5]: 175 nM; IC50 [2, 6]: 381 nM"
4 nM,8 nM,"Cc1cc[n+]([O-])c(C)c1-c1ccc(NC(=O)[C@@H](NC(=O)c2ccnn2C)[C@H]2CCCc3ccccc32)cc1 [Example 1, 2,4-dimethyl-3-(4-((S)-2-(1-methyl-1H-pyrazole-5-carboxamido)-2-((S)-1,2,3,4-tetrahydronaphthalen-1-yl)acetamido)phenyl)pyridine 1-oxide]",–
15 nM,24 nM,"Cc1c(-c2ccc(NC(=O)[C@@H](NC(=O)c3ccnn3C)C3CCCCC3)cc2F)c(Cl)cc[n+]1[O-] [Example 2, 4-chloro-3-(4-((S)-2-cyclohexyl-2-(1-methyl-1H-pyrazole-5-carboxamido)acetamido)-2-fluorophenyl)-2-methylpyridine 1-oxide]",–
7 nM,24 nM,"Cc1cc[n+]([O-])c(C)c1-c1ccc(NC(=O)C(NC(=O)c2ccnn2C)C2CCC(C)CC2)cc1 [Example 3, 2,4-dimethyl-3-(4-((S)-2-(1-methyl-1H-pyrazole-5-carboxamido)-2-((1r,4S)-4-methylcyclohexyl)acetamido)phenyl)pyridine 1-oxide]",–
12 nM,26 nM,"CCc1nocc1C(=O)NC(C(=O)Nc1ccc(-c2c(Cl)cc[n+]([O-])c2C)cc1)C1CCC(C(F)(F)F)CC1 [Example 4, 4-chloro-3-(4-((S)-2-(3-ethylisoxazole-4-carboxamido)-2-((1r,4S)-4-(trifluoromethyl)cyclohexyl)acetamido)phenyl)-2-methylpyridine 1-oxide]",–
–,–,"CCn1nccc1C(=O)NC(C(=O)Nc1ccc(-c2c(C)cc[n+]([O-])c2C)cc1)C1CCC(C(F)(F)F)CC1 [Example 7, 3-(4-((S)-2-(1-ethyl-1H-pyrazole-5-carboxamido)-2-((1r,4S)-4-(trifluoromethyl)cyclohexyl)acetamido)phenyl)-2,4-dimethylpyridine 1-oxide]","IC50 [1, 3]: 26 nM; IC50 [2, 4]: 46 nM"
4 nM,41 nM,"CCc1nocc1C(=O)NC(C(=O)Nc1ccc(-c2c(C)cc[n+]([O-])c2C)cc1)C1CCC(C(F)(F)F)CC1 [Example 8, 3-(4-((S)-2-(3-ethylisoxazole-4-carboxamido)-2-((1r,4S)-4-(trifluoromethyl)cyclohexyl)acetamido)phenyl)-2,4-dimethylpyridine 1-oxide]",–
4 nM,60 nM,"Cc1nocc1C(=O)N[C@H](C(=O)Nc1ccc(-c2c(C(F)(F)F)cc[n+]([O-])c2C)cc1)[C@H]1CCCC(F)(F)C1 [Example 9, 3-(4-((S)-2-((S)-3,3-difluorocyclohexyl)-2-(3-methylisoxazole-4-carboxamido)acetamido)phenyl)-2-methyl-4-(trifluoromethyl)pyridine 1-oxide]",–
11 nM,93 nM,"CCn1nccc1C(=O)N[C@H](C(=O)Nc1ccc(-c2c(C(F)(F)F)cc[n+]([O-])c2C)cc1)[C@H]1CCCC(F)(F)C1 [Example 10, 3-(4-((S)-2-((S)-3,3-difluorocyclohexyl)-2-(1-ethyl-1H-pyrazole-5-carboxamido)acetamido)phenyl)-2-methyl-4-(trifluoromethyl)pyridine 1-oxide]",–
20 nM,82 nM,"CCn1nccc1C(=O)N[C@H](C(=O)Nc1ccc(-c2c(C(F)(F)F)cc[n+]([O-])c2C)cc1)C1CCC(F)(F)CC1 [Example 11, (S)-3-(4-(2-(4,4-difluorocyclohexyl)-2-(1-ethyl-1H-pyrazole-5-carboxamido)acetamido)phenyl)-2-methyl-4-(trifluoromethyl)pyridine 1-oxide]",–
9 nM,24 nM,"Cc1nocc1C(=O)N[C@H](C(=O)Nc1ccc(-c2c(Cl)cc[n+]([O-])c2C)c(F)c1)C1CCCCC1 [Example 14, 4-chloro-3-(4-((S)-2-cyclohexyl-2-(3-methylisoxazole-4-carboxamido)acetamido)-2-fluorophenyl)-2-methylpyridine 1-oxide]",–
18 nM,118 nM,"Cc1nscc1C(=O)N[C@H](C(=O)Nc1ccc(-c2c(Cl)cc[n+]([O-])c2C)c(F)c1)C1CCCCC1 [Example 17, 4-chloro-3-(4-((S)-2-cyclohexyl-2-(3-methylisothiazole-4-carboxamido)acetamido)-2-fluorophenyl)-2-methylpyridine 1-oxide]",–
28 nM,25 nM,"Cc1c(-c2ccc(NC(=O)C(NC(=O)c3ccnn3C)C3CCC(C(F)(F)F)CC3)cc2)c(Cl)cc[n+]1[O-] [Example 18, 4-chloro-2-methyl-3-(4-((S)-2-(1-methyl-1H-pyrazole-5-carboxamido)-2-((1r,4S)-4-(trifluoromethyl)cyclohexyl)acetamido)phenyl)pyridine 1-oxide]",–
20 nM,26 nM,"Cc1nocc1C(=O)NC(C(=O)Nc1ccc(-c2c(Cl)cc[n+]([O-])c2C)cc1)C1CCC(C(F)(F)F)CC1 [Example 19, 4-chloro-2-methyl-3-(4-((S)-2-(3-methylisoxazole-4-carboxamido)-2-((1r,4S)-4-(trifluoromethyl)cyclohexyl)acetamido)phenyl)pyridine 1-oxide]",–
31 nM,39 nM,"CCn1nccc1C(=O)N[C@H](C(=O)Nc1ccc(-c2c(C(F)(F)F)cc[n+]([O-])c2C)cc1)C1CCCC1 [Example 21, (S)-3-(4-(2-cyclopentyl-2-(1-ethyl-1H-pyrazole-5-carboxamido)acetamido)phenyl)-2-methyl-4-(trifluoromethyl)pyridine 1-oxide]",–
66 nM,59 nM,"Cc1nocc1C(=O)N[C@H](C(=O)Nc1ccc(-c2c(C(F)(F)F)cc[n+]([O-])c2C)cc1)C1CCCC1 [Example 22, (S)-3-(4-(2-cyclopentyl-2-(3-methylisoxazole-4-carboxamido)acetamido)phenyl)-2-methyl-4-(trifluoromethyl)pyridine 1-oxide]",–

Compound,"IC50 [1, 7]","IC50 [2, 8]",other results
"COCCn1nccc1C(=O)N[C@H](C(=O)Nc1ccc(-c2c(Cl)cc[n+]([O-])c2C)c(F)c1)C1CCCCC1 [Example 15, 4-chloro-3-(4-((S)-2-cyclohexyl-2-(1-(2-methoxyethyl)-1H-pyrazole-5-carboxamido)acetamido)-2-fluorophenyl)-2-methylpyridine 1-oxide]",10 nM,52 nM,–
